# Target: T1, chimeric human H3 receptor (Homo sapiens, UniProt Q9Y5N1, E19D)
# T1 construct: made in house; host or cells: Sf9 insect cells (baculovirus infection); P2 membrane preparation
# Assay: Chimeric human H3 receptor GTP binding assay (agonist-stimulated GTP-gamma35S binding, Example 7)
# Type: biochemical
# Conditions: not given
# Outline: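 Sf9 membranes co-expressing the chimeric receptor and heterotrimeric G-protein subunits, 35 μg protein per tube, in pH 7.4 Tris buffer with 10 μM GDP. Test compounds at 10^−10 to 10^−6 M with 1 μM histamine, 60 min at room temperature. Filter-bound GTP-gamma^35S read by scintillation; IC50 from non-linear regression of dose-response curves.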
# T1 sequence (Q9Y5N1 with tags, fused parts or gaps E19D): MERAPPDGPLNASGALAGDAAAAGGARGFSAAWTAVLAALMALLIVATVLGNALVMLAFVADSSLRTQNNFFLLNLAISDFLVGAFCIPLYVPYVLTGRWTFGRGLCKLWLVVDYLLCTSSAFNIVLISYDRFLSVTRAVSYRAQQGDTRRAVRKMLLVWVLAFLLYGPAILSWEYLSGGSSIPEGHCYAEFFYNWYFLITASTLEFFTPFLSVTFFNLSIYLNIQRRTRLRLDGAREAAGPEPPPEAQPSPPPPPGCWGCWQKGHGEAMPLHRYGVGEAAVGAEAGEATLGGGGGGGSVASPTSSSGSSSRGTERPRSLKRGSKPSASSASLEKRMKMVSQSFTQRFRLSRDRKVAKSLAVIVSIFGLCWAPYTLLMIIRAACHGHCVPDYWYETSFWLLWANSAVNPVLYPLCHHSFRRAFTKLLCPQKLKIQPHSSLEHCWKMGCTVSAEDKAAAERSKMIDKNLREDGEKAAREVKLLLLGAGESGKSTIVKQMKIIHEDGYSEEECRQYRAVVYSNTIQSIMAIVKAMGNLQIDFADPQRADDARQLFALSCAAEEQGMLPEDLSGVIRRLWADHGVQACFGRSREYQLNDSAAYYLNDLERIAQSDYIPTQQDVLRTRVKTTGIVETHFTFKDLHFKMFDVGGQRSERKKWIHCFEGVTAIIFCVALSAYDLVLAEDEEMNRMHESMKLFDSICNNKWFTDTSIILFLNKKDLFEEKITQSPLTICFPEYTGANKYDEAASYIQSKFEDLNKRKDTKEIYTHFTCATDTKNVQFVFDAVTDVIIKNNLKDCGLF
row,Structure (SMILES),Ki [µM]
1,"O=C(CN1CCN(c2cccc(C(F)(F)F)c2)CC1)N1CCN(C2CCC2)CC1 [Compound 590, 1-cyclobutyl-4-({4-[3-(trifluoromethyl)phenyl]piperazin-1-yl}acetyl)piperazine]",< 1
2,"CC(C)N1CCN(C(=O)CN2CCN(c3ccc4c(c3)OCO4)CC2)CC1 [Compound 258, 1-(1,3-benzodioxol-5-yl)-4-[2-(4-isopropylpiperazin-1-yl)-2-oxoethyl]piperazine]",< 1

# Same assay, conditions: "*" in Ki of Table II; assay of Example 7; read-out: Ki
row,Ki [µM],Structure (SMILES)
1,< 1,"O=C(CN1CCN(c2ccc(-c3ccc4c(c3)OCO4)cc2)CC1)N1CCN(C2CCC2)CC1 [Compound 458, 1-[4-(1,3-benzodioxol-5-yl)phenyl]-4-[2-(4-cyclobutylpiperazin-1-yl)-2-oxoethyl]piperazine]"

# Same assay, conditions: Table II "Ki", symbol "*": Ki in the assay of Example 7; read-out: Ki
row,Ki [µM],Structure (SMILES)
1,< 1,"COc1ccc(C(C)C)cc1-c1ccc(N2CCN(CC(=O)N3CCN(C4CCC4)CC3)CC2)cc1 [Compound 793, 1-cyclobutyl-4-{[4-(5′-isopropyl-2′-methoxybiphenyl-4-yl)piperazin-1-yl]acetyl}piperazine]"
2,< 1,"COc1cccc(N2CCN(CC(=O)N3CCN(C4CCCCC4)CC3)CC2)c1 [Compound 820, 1-cyclohexyl-4-{[4-(3-methoxyphenyl)piperazin-1-yl]acetyl}piperazine]"
3,< 1,"CCC(C)N1CCN(C(=O)CN2CCN(c3cccc(Cl)c3Cl)CC2)CC1 (stereo not shown) [Compound 859, 1-sec-butyl-4-{[4-(2,3-dichlorophenyl)piperazin-1-yl]acetyl}piperazine]"

# Same assay, conditions: Table II, "*" in Ki; assay of Example 7; read-out: Ki
row,Ki [µM],Structure (SMILES)
1,< 1,"CC1CCN(C(=O)c2ccc(N3CCN(CC(=O)N4CCN(C5CCC5)CC4)CC3)cc2)CC1 [Compound 649, 1-cyclobutyl-4-[(4-{4-[(4-methylpiperidin-1-yl)carbonyl]phenyl}piperazin-1-yl)acetyl]piperazine]"
2,< 1,"CC1CCCCN1C(=O)c1ccc(N2CCN(CC(=O)N3CCN(C4CCC4)CC3)CC2)nc1 (stereo not shown) [Compound 651, 1-cyclobutyl-4-[(4-{5-[(2-methylpiperidin-1-yl)carbonyl]pyridin-2-yl}piperazin-1-yl)acetyl]piperazine]"
3,< 1,"O=C(CN1CCN(c2ccc(-c3cccc(Cl)c3Cl)cc2)CC1)N1CCN(C2CCC2)CC1 [Compound 665, 1-cyclobutyl-4-{[4-(2′,3′-dichlorobiphenyl-4-yl)piperazin-1-yl]acetyl}piperazine]"
4,< 1,"CCC1CCCCN1C(=O)c1ccc(N2CCN(CC(=O)N3CCN(C4CCC4)CC3)CC2)cc1 (stereo not shown) [Compound 643, 1-cyclobutyl-4-[(4-{4-[(2-ethylpiperidin-1-yl)carbonyl]phenyl}piperazin-1-yl)acetyl]piperazine]"
5,< 1,"CSc1cccc(-c2ccc(N3CCN(CC(=O)N4CCN(C5CCC5)CC4)CC3)cc2)c1 [Compound 584, 1-cyclobutyl-4-({4-[3′-(methylthio)biphenyl-4-yl]piperazin-1-yl}acetyl)piperazine]"

# Same assay, conditions: Table II; assay of Example 7; "*" in Ki; read-out: Ki
row,Ki [µM],Structure (SMILES)
1,< 1,"CC(C)CCNC(=O)c1cccc(N2CCN(CC(=O)N3CCN(C4CCC4)CC3)CC2)c1 [Compound 1076, 3-{4-[2-(4-cyclobutylpiperazin-1-yl)-2-oxoethyl]piperazin-1-yl}-N-(3-methylbutyl)benzamide]"
2,< 1,"O=C(CN1CCN(c2ccc(-c3ccccc3Oc3ccccc3)nn2)CC1)N1CCN(C2CCC2)CC1 [Compound 1047, 3-{4-[2-(4-cyclobutylpiperazin-1-yl)-2-oxoethyl]piperazin-1-yl}-6-(2-phenoxyphenyl) pyridazine]"
3,< 1,"N#Cc1ccc(N2CCN(CC(=O)N3CCN(C4CCC4)CC3)CC2)cc1 [Compound 1121, 4-{1-[2-(4-cyclobutylpiperazin-1-yl)-2-oxoethyl]piperazin-1-yl}benzonitrile]"
4,< 1,"CCCC(C)NC(=O)c1cccc(N2CCN(CC(=O)N3CCN(C4CCC4)CC3)CC2)c1 (stereo not shown) [Compound 1082, 3-{4-[2-(4-cyclobutylpiperazin-1-yl)-2-oxoethyl]piperazin-1-yl}-N-(1-methylbutyl)benzamide]"

# Same assay, conditions: assay of Example 7; "*" in Ki of Table II; read-out: Ki
row,Structure (SMILES),Ki [µM]
1,"O=C(CC1CCCC1)NC1CCN(CC(=O)N2CCN(C3CCC3)CC2)C1 (stereo not shown) [Compound 1248, N-{1-[2-(4-cyclobutylpiperazin-1-yl)-2-oxoethyl]pyrrolidin-3-yl}-2-cyclopentylacetamide]",< 1
2,"CC(C)N1CCN(C(=O)CN2CCN(c3ccc(C#N)cc3)CC2)CC1 [Compound 1149, 4-{4-[2-(4-isopropylpiperazin-1-yl)-2-oxoethyl]piperazin-1-yl}benzonitrile]",< 1
3,"CCSc1ccc(C(=O)NC2CCN(CC(=O)N3CCN(C4CCC4)CC3)C2)cc1 (stereo not shown) [Compound 1242, N-{1-[2-(4-cyclobutylpiperazin-1-yl)-2-oxoethyl]pyrrolidin-3-yl}-4-(ethylthio)benzamide]",< 1
4,"O=C(OCc1ccccc1)c1cccc(N2CCN(CC(=O)N3CCN(C4CCC4)CC3)CC2)c1 [Compound 1193, benzyl 3-{4-[2-(4-cyclobutylpiperazin-1-yl)-2-oxoethyl]piperazin-1-yl}benzoate]",< 1
5,"CCOC(=O)c1ccc(-c2cnc(N3CCN(CC(=O)N4CCN(C5CCC5)CC4)CC3)cn2)cc1 [Compound 1197, ethyl 4-(5-{4-[2-(4-cyclobutylpiperazin-1-yl)-2-oxoethyl]piperazin-1-yl}pyrazin-2-yl)benzoate]",< 1

# Further lines, results first:
row,Ki [µM],Structure (SMILES)
1,< 1,"O=C(NC1CCC1)c1cccc(N2CCN(CC(=O)N3CCN(C4CCC4)CC3)CC2)c1 [Compound 1266, N-cyclobutyl-3-{4-[2-(4-cyclobutylpiperazin-1-yl)-2-oxoethyl]piperazin-1-yl}benzamide]"
2,< 1,"C=CCNC(=O)c1ccc(N2CCN(CC(=O)N3CCN(C4CCC4)CC3)CC2)cc1 [Compound 1261, N-allyl-4-{4-[2-(4-cyclobutylpiperazin-1-yl)-2-oxoethyl]piperazin-1-yl}benzamide]"
3,< 1,"C=CCNC(=O)c1cccc(N2CCN(CC(=O)N3CCN(C4CCC4)CC3)CC2)c1 [Compound 1260, N-allyl-3-{4-[2-(4-cyclobutylpiperazin-1-yl)-2-oxoethyl]piperazin-1-yl}benzamide]"

# Same assay, conditions: assay of Example 7; symbol * in column headed Ki of Table II; read-out: Ki
row,Ki [µM],Structure (SMILES)
1,< 1,"O=C1NC2(CCN(CC(=O)N3CCN(C4CCC4)CC3)CC2)c2ccccc21 [Compound 434, 1′-[2-(4-cyclobutylpiperazin-1-yl)-2-oxoethyl]spiro[isoindole-1,4′-piperidin]-3(2H)-one]"
2,< 1,"O=C(Cc1cc(Cl)ccc1Br)N1CCN(CC(=O)N2CCN(C3CCC3)CC2)CC1 [Compound 379, 1-[(2-bromo-5-chlorophenyl)acetyl]-4-[2-(4-cyclobutylpiperazin-1-yl)-2-oxoethyl]piperazine]"
3,< 1,"COc1cccc(CN2C(=O)c3cccnc3C23CCN(CC(=O)N2CCN(C4CCC4)CC2)CC3)c1 [Compound 430, 1-[2-(4-cyclobutylpiperazin-1-yl)-2-oxoethyl]-6′-(3-methoxybenzyl) spiro[piperidine-4,7-pyrrolo[3,4-b]pyridin]-5′(6′H)-one]"
4,< 1,"CC(Oc1cccc(Cl)c1)C(=O)N1CCN(CC(=O)N2CCN(C3CCC3)CC2)CC1 (stereo not shown) [Compound 418, 1-[2-(3-chlorophenoxy)propanoyl]-4-[2-(4-cyclobutylpiperazin-1-yl)-2-oxoethyl]piperazine]"
5,< 1,"COc1cc(C(C)=O)ccc1N1CCN(CC(=O)N2CCN(C3CCC3)CC2)CC1 [Compound 319, 1-(4-{4-[2-(4-cyclobutylpiperazin-1-yl)-2-oxoethyl]piperazin-1-yl}-3-methoxyphenyl)ethanone]"
